Measurements from the NIST ThermoML archive (doi:10.1016/j.jct.2006.06.005).
Numbers after ± are expanded uncertainties.

Tests used:
[1] = 101 kPa, Liquid
[2] = xn = mol fraction of the nth substance listed; conditions: 101 kPa, Liquid

CN1CCCC1=O [N-methylpyrrolidone]
[1]
Conditions | mass density [kg/m3] | viscosity [mPa·s]
303.15 K | 1023.47 ± 0.53 | 1.554 ± 0.037
313.15 K | 1014.55 ± 0.5 | 1.332 ± 0.032
323.15 K | 1005.66 ± 0.47 | 1.16 ± 0.029
333.15 K | 996.71 ± 0.46 | 1.022 ± 0.026
343.15 K | 987.75 ± 0.48 | 0.908 ± 0.023
353.15 K | 978.76 ± 0.51 | 0.8127 ± 0.021

CN1CCCC1=O [N-methylpyrrolidone] + C1CCCCC1
[2]
Conditions | mass density, 303.15 K [kg/m3] | mass density, 313.15 K [kg/m3] | mass density, 323.15 K [kg/m3] | mass density, 333.15 K [kg/m3] | viscosity, 303.15 K [mPa·s] | viscosity, 313.15 K [mPa·s] | viscosity, 323.15 K [mPa·s] | viscosity, 333.15 K [mPa·s]
x2 = 0 | 1023.47 ± 0.53 | 1014.55 ± 0.5 | 1005.66 ± 0.47 | 996.71 ± 0.46 | 1.554 ± 0.037 | 1.332 ± 0.032 | 1.16 ± 0.029 | 1.022 ± 0.026
x2 = 0.1157 | 989.9 ± 0.44 | 980.96 ± 0.46 | 972.02 ± 0.49 | 963.06 ± 0.51 | 1.394 ± 0.034 | 1.206 ± 0.03 | 1.056 ± 0.026 | 0.931 ± 0.024
x2 = 0.2275 | 958.38 ± 0.49 | 949.41 ± 0.52 | 940.41 ± 0.54 | 931.37 ± 0.57 | 1.28 ± 0.031 | 1.106 ± 0.027 | 0.965 ± 0.024 | 0.854 ± 0.022
x2 = 0.3355 | 928.85 ± 0.55 | 919.78 ± 0.58 | 910.71 ± 0.6 | 901.57 ± 0.63 | 1.194 ± 0.029 | 1.032 ± 0.026 | 0.9 ± 0.023 | 0.791 ± 0.02
x2 = 0.4398 | 901.35 ± 0.61 | 892.21 ± 0.64 | 883.02 ± 0.67 | 873.78 ± 0.69 | 1.132 ± 0.028 | 0.973 ± 0.024 | 0.843 ± 0.021 | 0.739 ± 0.019
x2 = 0.5409 | 875.71 ± 0.67 | 866.43 ± 0.7 | 857.14 ± 0.73 | 847.77 ± 0.76 | 1.073 ± 0.026 | 0.92 ± 0.023 | 0.791 ± 0.02 | 0.692 ± 0.018
x2 = 0.6386 | 851.53 ± 0.73 | 842.17 ± 0.76 | 832.77 ± 0.79 | 823.29 ± 0.82 | 1.011 ± 0.025 | 0.866 ± 0.022 | 0.746 ± 0.019 | 0.648 ± 0.017
x2 = 0.7332 | 828.73 ± 0.8 | 819.29 ± 0.82 | 809.79 ± 0.85 | 800.2 ± 0.88 | 0.953 ± 0.024 | 0.813 ± 0.021 | 0.699 ± 0.018 | 0.608 ± 0.016
x2 = 0.8249 | 807.41 ± 0.86 | 797.92 ± 0.89 | 788.36 ± 0.92 | 778.69 ± 0.95 | 0.895 ± 0.022 | 0.76 ± 0.02 | 0.655 ± 0.017 | 0.573 ± 0.016
x2 = 0.9138 | 787.37 ± 0.92 | 777.85 ± 0.95 | 768.22 ± 0.98 | 758.49 ± 1 | 0.843 ± 0.021 | 0.72 ± 0.019 | 0.623 ± 0.017 | 0.544 ± 0.015

CN1CCCC1=O [N-methylpyrrolidone] + Cc1ccccc1
[2]
Conditions | mass density [kg/m3] | viscosity [mPa·s]
303.15 K, x2 = 0 | 1023.47 ± 0.53 | 1.554 ± 0.037
303.15 K, x2 = 0.1071 | 1006.98 ± 0.46 | 1.399 ± 0.034
303.15 K, x2 = 0.2121 | 990.67 ± 0.45 | 1.258 ± 0.031
303.15 K, x2 = 0.3156 | 974.42 ± 0.48 | 1.138 ± 0.028
303.15 K, x2 = 0.4177 | 958.02 ± 0.52 | 1.021 ± 0.026
303.15 K, x2 = 0.5185 | 941.54 ± 0.56 | 0.923 ± 0.023
303.15 K, x2 = 0.6174 | 925 ± 0.6 | 0.822 ± 0.021
303.15 K, x2 = 0.7151 | 907.95 ± 0.64 | 0.727 ± 0.019
303.15 K, x2 = 0.8114 | 890.99 ± 0.68 | 0.65 ± 0.017
303.15 K, x2 = 0.9064 | 874.21 ± 0.72 | 0.566 ± 0.015
313.15 K, x2 = 0 | 1014.55 ± 0.5 | 1.332 ± 0.032
313.15 K, x2 = 0.1071 | 998.03 ± 0.44 | 1.21 ± 0.03
313.15 K, x2 = 0.2121 | 981.67 ± 0.47 | 1.088 ± 0.027
313.15 K, x2 = 0.3156 | 965.37 ± 0.51 | 0.991 ± 0.025
313.15 K, x2 = 0.4177 | 948.91 ± 0.54 | 0.89 ± 0.023
313.15 K, x2 = 0.5185 | 932.4 ± 0.58 | 0.803 ± 0.021
313.15 K, x2 = 0.6174 | 915.81 ± 0.62 | 0.719 ± 0.019
313.15 K, x2 = 0.7151 | 898.7 ± 0.66 | 0.642 ± 0.017
313.15 K, x2 = 0.8114 | 881.69 ± 0.71 | 0.575 ± 0.016
313.15 K, x2 = 0.9064 | 864.87 ± 0.75 | 0.516 ± 0.014
323.15 K, x2 = 0 | 1005.66 ± 0.47 | 1.16 ± 0.029
323.15 K, x2 = 0.1071 | 989.08 ± 0.46 | 1.061 ± 0.026
323.15 K, x2 = 0.2121 | 972.67 ± 0.5 | 0.956 ± 0.024
323.15 K, x2 = 0.3156 | 956.3 ± 0.53 | 0.87 ± 0.022
323.15 K, x2 = 0.4177 | 939.78 ± 0.57 | 0.783 ± 0.02
323.15 K, x2 = 0.5185 | 923.24 ± 0.61 | 0.71 ± 0.019
323.15 K, x2 = 0.6174 | 906.6 ± 0.65 | 0.639 ± 0.017
323.15 K, x2 = 0.7151 | 889.42 ± 0.69 | 0.572 ± 0.016
323.15 K, x2 = 0.8114 | 872.36 ± 0.73 | 0.514 ± 0.014
323.15 K, x2 = 0.9064 | 855.48 ± 0.78 | 0.463 ± 0.014
333.15 K, x2 = 0 | 996.71 ± 0.46 | 1.022 ± 0.026
333.15 K, x2 = 0.1071 | 980.08 ± 0.49 | 0.932 ± 0.024
333.15 K, x2 = 0.2121 | 963.63 ± 0.52 | 0.844 ± 0.022
333.15 K, x2 = 0.3156 | 947.17 ± 0.56 | 0.766 ± 0.02
333.15 K, x2 = 0.4177 | 930.61 ± 0.6 | 0.695 ± 0.018
333.15 K, x2 = 0.5185 | 914.01 ± 0.64 | 0.632 ± 0.017
333.15 K, x2 = 0.6174 | 897.3 ± 0.68 | 0.57 ± 0.016
333.15 K, x2 = 0.7151 | 880.06 ± 0.72 | 0.514 ± 0.014
333.15 K, x2 = 0.8114 | 862.94 ± 0.76 | 0.463 ± 0.014
333.15 K, x2 = 0.9064 | 845.99 ± 0.81 | 0.418 ± 0.013
343.15 K, x2 = 0 | 987.75 ± 0.48 | 0.908 ± 0.023
343.15 K, x2 = 0.1071 | 971.08 ± 0.51 | 0.844 ± 0.022
343.15 K, x2 = 0.2121 | 954.56 ± 0.55 | 0.751 ± 0.02
343.15 K, x2 = 0.3156 | 938.03 ± 0.59 | 0.683 ± 0.018
343.15 K, x2 = 0.4177 | 921.4 ± 0.62 | 0.622 ± 0.017
343.15 K, x2 = 0.5185 | 904.74 ± 0.66 | 0.566 ± 0.016
343.15 K, x2 = 0.6174 | 887.95 ± 0.7 | 0.518 ± 0.015
343.15 K, x2 = 0.7151 | 870.65 ± 0.75 | 0.464 ± 0.014
343.15 K, x2 = 0.8114 | 853.44 ± 0.79 | 0.418 ± 0.013
343.15 K, x2 = 0.9064 | 836.42 ± 0.83 | 0.379 ± 0.012
353.15 K, x2 = 0 | 978.76 ± 0.51 | 0.8127 ± 0.021
353.15 K, x2 = 0.1071 | 962 ± 0.54 | 0.7651 ± 0.02
353.15 K, x2 = 0.2121 | 945.42 ± 0.58 | 0.6769 ± 0.018
353.15 K, x2 = 0.3156 | 928.81 ± 0.61 | 0.617 ± 0.017
353.15 K, x2 = 0.4177 | 912.13 ± 0.65 | 0.5616 ± 0.015
353.15 K, x2 = 0.5185 | 895.4 ± 0.69 | 0.513 ± 0.014
353.15 K, x2 = 0.6174 | 878.51 ± 0.73 | 0.464 ± 0.014
353.15 K, x2 = 0.7151 | 861.11 ± 0.78 | 0.422 ± 0.013
353.15 K, x2 = 0.8114 | 843.83 ± 0.82 | 0.381 ± 0.012
353.15 K, x2 = 0.9064 | 826.71 ± 0.86 | 0.347 ± 0.011
